Data as given in patent US9820997B2, “Pharmaceutical composition for treating disease associated with demyelination of neurons and method of using the pharmaceutical composition” (Samsung Electronics Co., Ltd., priority 2014, dated 2017).

Key:
PMP22 mRNA = PMP22 mRNA expression in SH-SY5Y cells by RT-PCR; format: cell-based, human; details: according to DDS concentration; FIG. 2
Method: SH-SY5Y cells were inoculated at a concentration of 10^5 cells/ml in each well of a 12-well plate including 2 ml of a DMEM medium containing 10% FBS, 100 units/ml of penicillin, and 100 units/ml of streptomycin and incubated until the cell density was about 60% to about 65% in a 5% CO2 incubator at 37°. Then, dapsone (4,4′-diaminodiphenylsulfone, DDS) (available from Sigma), MADDS (available from Sigma), SSZ (available from Sigma), and SCM (available from Sigma) were respectively added to the wells at various concentrations and incubated for 24 hours under the same conditions. Vitamin C (ascorbic acid, AA) (available from Sigma) was used as the positive control group. Vitamin C is known as having an effect of treating peripheral neuropathy by using a cAMP modulator. SH-SY5Y cells are a human-derived cell line used in scientific research. The original cell line, SK-N-SH from which SH-SY5Y cells were subcloned, was isolated from a bone marrow biopsy taken from a person with neuroblastoma. […]
Also, RNA from treated and untreated SH-SY5Y cells was extracted by with Trizol (Invitrogen). PM22 gene expression was analyzed by using a one-step RT-PCR kit (Qiagen), whereby the extracted RNA was mixed with a PMP22 gene specific primer set of SEQ ID NOS: 1 and 2, and a real time-PCR (RT-PCR) was performed to confirm the degree of mRNA expression.

PMP22 = PMP22 protein amount in PMP22-overexpressing SH-SY5Y cells by Western blot; format: cell-based, human; details: for amount of the PMP22 protein compared to negative control and positive control (AA): FIGS. 5A/5B
Method: SH-SY5Y cells were inoculated at a concentration of 10^5 cells/ml in each well of a 12-well plate including 2 ml of a DMEM medium containing 10% FBS, 100 units/ml of penicillin, and 100 units/ml of streptomycin and incubated until the cell density was about 60% to about 65% in a 5% CO2 incubator at 37°. Then, dapsone (4,4′-diaminodiphenylsulfone, DDS) (available from Sigma), MADDS (available from Sigma), SSZ (available from Sigma), and SCM (available from Sigma) were respectively added to the wells at various concentrations and incubated for 24 hours under the same conditions. Vitamin C (ascorbic acid, AA) (available from Sigma) was used as the positive control group. Vitamin C is known as having an effect of treating peripheral neuropathy by using a cAMP modulator. SH-SY5Y cells are a human-derived cell line used in scientific research. The original cell line, SK-N-SH from which SH-SY5Y cells were subcloned, was isolated from a bone marrow biopsy taken from a person with neuroblastoma. SH-SY5Y cells are often used as in vitro models of neuronal function and differentiation. The SH-SY5Y cells used herein have been modified to consistently overexpress the human PMP22 gene by lentiviral mediated integration of PMP22 into a chromosome.
After removing 2 ml of the culture medium, the SH-SY5Y cells were washed with phosphate buffered saline (PBS), and a lysis solution, 0.5% Triton X-100, in PBS was added thereto. Then, cells were collected using a scraper, left in ice for 30 minutes, and then, the cells were disrupted. Using a bicinchoninic acid (BCA) protein assay, the amount of protein in each sample was normalized to 1 ug/ul. SDS-PAGE (Invitrogen) was performed on the sample, and then Western blotting was performed with rabbit anti-PMP22 (Novus biological) and rabbit anti-actin (Sigma) primary antibodies, and an anti-rabbit secondary antibody.

Zebrafish (Danio rerio) = test: Remyelination in MTZ-demyelinated genetically engineered zebrafish, confocal fluorescence; format: in vivo; details: demyelinated central and peripheral nervous system; 10 uM
[1] = tested on: Tr-J mice (CMT mouse model); test: Rotarod test in mice; format: in vivo; details: 50 mg/kg per day orally for 2 months
[2] = tested on: Tr-J mice (CMT mouse model); test: Twitch/tetanus isometric force of soleus muscle; format: in vivo; details: 50 mg/kg, 2 months, vs placebo-treated mice, FIG. 11
[3] = tested on: Tr-J mice (CMT mouse model); test: Sciatic nerve morphology by toluidine blue staining and g-ratio; format: in vivo; details: 50 mg/kg, 2 months
Excerpt: In this example, the effect of sulfasalzine on the CMT was investigated using Trembler-J (Tr-J) mice. The Tr-J mouse has a missense mutation in the murine peripheral myelin protein-22 gene (Pmp22). Pmp22 mutations are believed to cause the neuropathies of Charcot-Marie-tooth disease in humans (Nature 356, 241-244 (19 Mar. 1992); doi:10.1038/356241a0). Two month old heterozygous Tr^J mice in the C57BL/6J background were obtained from Jackson Laboratories (Bar Harbor, Me.). Matings between Tr-J heterozygous females and males in the C57BL/6 genetic background were implemented to generate Tr-J heterozygous and wild-type controls.
Sulfasalazine was obtained from Sigma-Aldrich, St. Louis. Sulfasalazine (50 mg/kg daily) was administered orally to female mice (n=4-5 per group) via sulfasalazine-containing drinking water. Before sulfasalazine oral intervention, weight and daily water intake of the mice was measured to determine the dose of sulfasalazine. Each Tr-J and WT mice were administered sulfasalazine drinking water for 2 months (50 mg/kg daily).
After 2 months oral intervention, sciatic nerves were harvested from mice (WT+/−50 mg/kg sulfasalazine and Trembler J+/−50 mg/kg sulfasalazine). Nerves were fixed in 2% (w/v) glutaraldehyde in 0.1 M phosphate buffer (pH 7.4) for 4 h, followed by washing with 0.1 M phosphate buffer. […] Sample sections were evaluated using light microscopy.

Nc1ccc(S(=O)(=O)c2ccc(N)cc2)cc1 [DDS, 4,4′-diaminodiphenylsulfone]
expression of PM22 mRNA (PMP22 mRNA): did not show a significant difference | amount of the PMP22 protein compared to negative control and positive control (AA) (PMP22): significantly decreased | amount of PMP22 protein (PMP22; as the concentration of DDS increases, 24 hours, n=4, FIGS. 1A/1B): decreased | effect on the promotion of remyelination (Zebrafish (Danio rerio)): confirmed

CC(=O)Nc1ccc(S(=O)(=O)c2ccc(N)cc2)cc1 [MADDS, mono N-acetyldapsone]
amount of the PMP22 protein compared to negative control and positive control (AA) (PMP22): significantly decreased | effect on the promotion of remyelination (Zebrafish (Danio rerio)): confirmed

CC(=O)NS(=O)(=O)c1ccc(N)cc1 [SCM, N-[(4-aminophenyl)sulfonyl]acetamide]
amount of the PMP22 protein compared to the control group (PMP22; vs DMSO control, FIGS. 4A/4B): decreased | effect on the promotion of remyelination (Zebrafish (Danio rerio)): confirmed

O=C(O)c1cc(/N=N/c2ccc(S(=O)(=O)Nc3ccccn3)cc2)ccc1O [SSZ]
time on rod ([1]; Tr-J mice, vs placebo-treated Tr-J mice): significantly increased | time on rod ([1]; WT mice, vs placebo-treated WT mice): decreased | tetanus contraction in Soleus tendon [2]: significantly increased | twitch contraction in Soleus tendon [2]: significantly increased | effect on the promotion of remyelination (Zebrafish (Danio rerio)): confirmed | g-ratio of sciatic nerve ([3]; Tr-J mice, vs vehicle treated Tr-J mice, FIG. 10C): significantly lower | number of myelinated axons in sciatic nerve ([3]; Tr-J mouse, vs vehicle-treated Tr-J mouse, FIG. 10A): significantly increased
